In patent publication US11369607B2, “Compositions, systems, and methods for generating inner ear hair cells for treatment of hearing loss” (Massachusetts Institute of Technology, priority 2014, dated 2022):
Entries after “also recorded” stand apart in the source; their conditions may differ.

Key:
[1] = test system: Lgr5+ supporting cells isolated from the cochlea; assay: Expansion of Lgr5-GFP inner ear progenitor cells in Matrigel based 3D culture; assay type: cell-based, mouse; details: for Lgr5-GFP expression, effect of addition / cell proliferation, effect of addition: neonatal Lgr5 inner ear progenitor cells; for use in place of VPA: data not shown; for importance of the factor for cell proliferation / importance of the factor for Lgr5-GFP expression: factor removed from the culture medium; for GFP+ cell number / total number of cells / GFP+ percentage: named factor removed from EFICVP6, 10 days
Protocol: Cell culture: Heterozygous Lgr5-EGFP-IRES-CreERT2 mice were obtained from Jackson Labs, and neonatal P2-P5 mice were used for cell isolation. Organ of Corti was isolated from Lgr5-GFP mice and further dissociated into single cells using trypsin. Cells were then cultured as previously described (Yin et al, 2014). Briefly, cells were entrapped in Matrigel and plated at the center of wells in a 24-well plate. Following polymerization of Matrigel, 500 μl of culture media (Advanced DMEM/F12 with N2 and B27) was added, containing growth factors including EGF (50 ng/ml) (epidermal growth factor), bFGF (20 ng/ml) (fibroblast growth factor), and IGF1 (50 ng/ml) (insulin-like growth factor 1), and small molecules including CHIR99021 (5 μM), valproic acid (1 mM), 2-phospho-L-ascorbic acid (280 μM), and 616452 (2 μM). Y-27632 (10 μM) was added for the first 2 days. In some experiments, bFGF was used at 50 ng/ml.
For single cell isolation, the organs of Corti were then treated with Cell Recovery Solution (Corning) for 1 h to separate cochlear epithelium from the underlying mesenchyme. Epithelia were then collected and treated with Trypsin (Life Technologies) for 15-20 minutes at 37° C. Single cells obtained by mechanical trituration were filtered by cell strainer (40 μm) and washed with cell culture media. For FACS sorting of Lgr5-high and Lgr5-Low cells, FACS ARIA (BD) was used and Lgr5-GFP was used as indicator of Lgr5 level. Sorted single cells were cultured in Matrigel in inner ear cell culture media with supplement growth factors and small molecules. Y-27632 was added in the first 2 days.
FACS analysis: Cell culture media was removed and Trypsin was added. After incubation at 37° C. for 10-20 min, colonies were dissociated into single cells. Live-cell number were counted using a hemocytometer and trypan blue staining. The cells were then stained with propidium iodide (PI) and analyzed with flow cytometry. The number of GFP-positive cells was calculated by multiplying the total number of cells by the percentage of GFP-positive cells.

patients = details: cited from earlier work
[2] = test system: expanded Lgr5-positive cells; assay: Differentiation of expanded Lgr5-positive cells to hair cells; assay type: cell-based, mouse; details: for effect on differentiation of hair cells: in differentiation media
Protocol: Differentiation protocol: For differentiation of expanded Lgr5-positive cells, following 10 days of culture in the cell expansion condition (EFICVP6), the cell colonies were transferred to fresh Matrigel and further cultured in differentiation media. Differentiation media contains Notch pathway inhibitor (e.g. DAPT, D, 5 μM, or LY411575, LY, 5 μM), with or without Gsk3β inhibitor (e.g. CHIR99021). Media were changed every other day. Following another 6-10 days of incubation with differentiation media, the colonies were harvested for qPCR analysis or fixed with 4% PFA and immunostained with hair cell markers Myo7a and Prestin.
RNA extraction and quantitative real-time PCR (qPCR): RNA was isolated from cultured cells (RNeasy Mini Kit; Qiagen) according to the manufacturer's protocol. Quantitative real-time PCR was performed with QuantiTect Probe PCR kit (Qiagen) using commercially available primers and TaqMan probes (Myo7a and Hprt Life Technologies).
Immunocytochemistry staining: Colonies were fixed at room temperature in 4% paraformaldehyde/PBS for 15-20 min and then washed twice with PBS containing 0.1% BSA. Cells were then permeabilized with 0.25% Triton X-100 in PBS in 4° C. for 30 minutes. Following 2 washes with PBS containing 0.1% BSA, the cells were incubated with blocking solution (Power Block, Biogenex) for 1 h. Diluted primary antibodies (in Power Block solution) was applied for 4 h at room temperature or overnight at 4° C. Primary antibodies used were Myosin VIIA (1:500, Rabbit polyclonal from Proteus Biosciences) and Prestin (1:400, Goat polyclonal from Santa Cruz). After 3 washes for 5 minutes each, secondary antibodies (Alexafluor 594 and 647-conjugated; Invitrogen) were added at 1:500 dilution and incubated at room temperature for 30 minutes. Nuclei were visualized with 4,6-diamidino-2-phenylindole (DAPI, Vector Laboratories). Staining was visualized with inverted fluorescence microscope (EVOS; Advanced Microscopy Group).

[3] = named factor removed, versus EFICVP6

With `Nc1ncnc2c1c(I)cn2[C@@H]1O[C@H](CO)[C@@H](O)[C@H]1O` [5IT] the “Lgr5-GFP expression, effect of addition” value [1] was “does not promote the expression of Lgr5-GFP”.
With `O=C(CCCCCCNC(=O)c1cnc(N(c2ccccc2)c2ccccc2)nc1)NO` [ACY1215] the “use in place of VPA” value [1] was “does not work”.
In the case of `Cc1cc(N2CCOCC2)cc2[nH]c(-c3c(NC[C@@H](O)c4cccc(Cl)c4)cc[nH]c3=O)nc12` [BMS536924], the “Lgr5-GFP expression, effect of addition” value [1] is reported as “does not promote the expression of Lgr5-GFP”.
For `CC(C)(C)OC(=O)Nc1ccc(-c2cc(C(=O)NCCCCCCC(=O)NO)no2)cc1` [CAY10603], the “use in place of VPA” value [1] was “does not work”.
In the case of `N.N.[Cl][Pt][Cl]` [Cisplatin], the “high frequency hearing loss (>8 kHZ)” value (patients; human, in vivo) is given as no more than 90%.
For `Cc1ccc2nc(NC(=O)CSc3nc4c(c(=O)n3-c3ccccc3)SCC4)sc2c1` [IWP-2], the “hair cell generation (Myosin VIIA and Prestin staining)” value ([2]; 10 days of differentiation) was “hair cell generation is rarely observed from cultured inner ear progenitor cells”.
For `Cc1cc(NC(=O)c2cccc(NC(=O)/C=C/CN(C)C)c2)ccc1Nc1nccc(-c2cccnc2)n1` [JNK-IN8], the “Lgr5-GFP expression, effect of addition” value [1] was “does not promote the expression of Lgr5-GFP”.
With `c1ccc2c(-c3cnn4cc(-c5ccc(N6CCNCC6)cc5)cnc34)ccnc2c1` [LDN193189] the “Lgr5-GFP expression, effect of addition” value [1] was “does not promote the expression of Lgr5-GFP; also recorded: greatly decreased Lgr5-GFP expression”.
With `O=C(NOC[C@H](O)CO)c1ccc(F)c(F)c1Nc1ccc(I)cc1F` [PD0325901] the “Lgr5-GFP expression, effect of addition” value [1] was “does not promote the expression of Lgr5-GFP”.
With `CNC(=O)c1ccc(C)c(-n2c(C)cc(OCc3ccc(F)cc3F)c(Br)c2=O)c1` [PH797804] the “Lgr5-GFP expression, effect of addition” value [1] was “does not promote the expression of Lgr5-GFP”.
With `CO[C@@H]1[C@H](N(C)C(=O)c2ccccc2)C[C@H]2O[C@]1(C)n1c3ccccc3c3c4c(c5c6ccccc6n2c5c31)C(=O)NC4` [PKC412] the “Lgr5-GFP expression, effect of addition” value [1] was “does not promote the expression of Lgr5-GFP”.
For `CCOC(=O)C1=C(N)Oc2ccc(Cl)cc2C1C(C#N)C(=O)OCC` (stereo not shown) [SC79], the “Lgr5-GFP expression, effect of addition” value [1] was “does not promote the expression of Lgr5-GFP”.
With `C[C@@H]1CCN(C(=O)CC#N)C[C@@H]1N(C)c1ncnc2[nH]ccc12` [Tofacitinib] the “Lgr5-GFP expression, effect of addition” value [1] was “does not promote the expression of Lgr5-GFP”.
With `CN1CCc2c(c3ccccc3n2Cc2ccc(C(=O)NO)cc2)C1` [Tubastatin A] the “use in place of VPA” value [1] was “does not work”.
For `O=c1ncn2nc(Sc3ccc(F)cc3F)ccc2c1-c1c(Cl)cccc1Cl` [VX745], the “Lgr5-GFP expression, effect of addition” value [1] was “does not promote the expression of Lgr5-GFP”.
With `Cc1cccc(-c2n[nH]cc2-c2ccc3ncccc3n2)n1` [compound 616452, 2-(3-(6-Methylpyridin-2-yl)-1H-pyrazol-4-yl)-1,5 napththyridine] the “passage / extended culture of the cells” value [1] was “enables the passage of cultured inner ear progenitor cells; also recorded: enables extended culture of the cells”, the passage of colonies [1] was “up to 5 generations” and the “colony size and GFP intensity” value ([1]; added on EFICVP) was “increases the intensity of Lgr5-GFP and the size of colonies; also recorded: tend to grow larger and possess brighter GFP expression than that in control conditions”. For the same molecule, the “importance of the factor for cell proliferation” value [1] was “greater impact on cell proliferation; also recorded: significant reduction in proliferation; also recorded: important to promote cell proliferation”, the “GFP+ cell number” value [1] was 9.8×10^4 cells and the “total number of cells” value [1] was 1.7×10^5 cells. The “decrease of GFP+ cell number” value [1, 3] was roughly 3 fold, the “decrease of total cell number” value [1, 3] was roughly 3 fold and the “Lgr5-GFP expression, effect of addition” value [1] was “does not promote the expression of Lgr5-GFP; also recorded: didn't increase Lgr5-GFP expression”. For the same molecule, the “cell proliferation, effect of addition” value [1] was “promotes the proliferation of Lgr5 inner ear progenitor cells” and the “effect on differentiation of hair cells” value [2] was “inhibit the differentiation of hair cells”.
In the case of `[H]/N=C(/N)N[C@H]1[C@H](O)[C@@H](O)[C@H](O[C@@H]2O[C@@H](C)[C@](O)(C=O)[C@H]2O[C@@H]2O[C@@H](CO)[C@H](O)[C@@H](O)[C@@H]2NC)[C@@H](N/C(N)=N\[H])[C@@H]1O` [streptomycin], the “incidence of vestibular impairment” value (patients; 1 gram per day) is listed as 25% and the “patients with some vestibular impairment” value (patients; 2 grams daily for 60 to 120 days) is listed as roughly 75%.
In the case of “EGF: epidermal growth factor (NSDSECPLSHDGYCLHDGVCMYIEALDKYACNCVVGYIGERCQYRDLKWWELR; UniProt P01133 971-1023, looked up)”, the “importance of the factor for Lgr5-GFP expression” value [1] is reported as “less important for GFP expression”, the “importance of the factor for cell proliferation” value [1] is reported as “important for cell proliferation; also recorded: greater impact on cell proliferation; also recorded: significant reduction in proliferation; also recorded: important to promote cell proliferation” and the “decrease of GFP+ cell number” value [1, 3] is reported as roughly 2 fold. The “decrease of total cell number” value [1, 3] was roughly 2 fold and the “effect on differentiation of hair cells” value [2] was “inhibit the differentiation of hair cells”.
With IGF-1: insulin like growth factor 1 the “importance of the factor for Lgr5-GFP expression” value [1] was “marginal effect on cell proliferation or GFP maintenance”, the “importance of the factor for cell proliferation” value [1] was “marginal effect on cell proliferation or GFP maintenance; also recorded: marginal effect to promote cell proliferation” and the “importance of the factor for Lgr5-GFP expression” value ([1]; listed as IGF) was “marginal beneficial effect in promoting cell proliferation and GFP expression”. The “importance of the factor for cell proliferation” value ([1]; listed as IGF) was “marginal beneficial effect in promoting cell proliferation and GFP expression”, the “importance of the factor for Lgr5-GFP expression” value ([1]; listed as IGF1) was “marginal beneficial effect on cell proliferation and Lgr5 expression” and the “importance of the factor for cell proliferation” value ([1]; listed as IGF1) was “marginal beneficial effect on cell proliferation and Lgr5 expression”. For the same molecule, the “GFP+ percentage” value [1] was 53%, the “total number of cells” value [1] was 4.1×10^5 cells and the “effect on differentiation of hair cells” value [2] was “inhibit the differentiation of hair cells”.
In the case of Laminin 511: added into Matrigel, the “Lgr5-GFP expression, effect of addition” value [1] is reported as “promotes GFP expression”.
With bFGF: basic fibroblast growth factor the “importance of the factor for Lgr5-GFP expression” value [1] was “less important for GFP expression; also recorded: important for GFP expression”, the “importance of the factor for cell proliferation” value [1] was “important for cell proliferation; also recorded: greatly impacted cell proliferation; also recorded: greatest effect on proliferation; also recorded: important to promote cell proliferation” and the “GFP+ cell number” value [1] was 1.4×10^4 cells. For the same molecule, the “GFP+ percentage” value [1] was 32%, the “decrease of GFP+ cell number” value [1, 3] was 20 fold and the “decrease of GFP+ percentage” value [1, 3] was roughly 2 fold. For the same molecule, the “decrease of total cell number” value [1, 3] was 10 fold, the “cell proliferation, effect of addition” value [1] was “promotes the proliferation of Lgr5 inner ear progenitor cells; also recorded: increased cell proliferation” and the “effect on differentiation of hair cells” value [2] was “inhibit the differentiation of hair cells”.
